Consider 16 compounds from patent publication US8017612B2, “Piperazine compound and use thereof as a HCV polymerase inhibitor” (priority 2006, dated 2011).

In experiment [1] the target is T1, HCV polymerase (NS5B) type 1b (Hepatitis C virus genotype 1b, UniProt P26663).
T1 construct: a region encoding NS5B (J Virol 1991 March, 65(3), 1105-13, 544 amino acids after deletion of 47 amino acids on the C-terminal); 6xHis (C); made in house; host or cells: Escherichia coli
Briefly: Assay of enzyme (HCV polymerase) inhibitory activity, type 1b enzyme. Type of experiment: biochemical, HCV BK strain (type 1b). As to conditions: HCV polymerase inhibitory activity IC50, 1b, type 1b enzyme. An outline of the steps:
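Polymerase activity was followed as radiolabelled UTP incorporation by E. coli-expressed, His-tagged NS5B of HCV type 1b lacking its last 47 residues. Conditions: 2 μM UTP, 50 μM other NTPs, Mg2+ buffer at pH 7.5, 25 °C for 60 min. Inhibition relative to compound-free reactions gave IC50.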

The target of experiment [2] is T2, HCV polymerase (NS5B) type 1a (Hepatitis C virus genotype 1a, UniProt P26664).
T2 construct: made in house; host or cells: Escherichia coli (by the 'similar method' of the 1b enzyme)
Briefly: Assay of enzyme (HCV polymerase) inhibitory activity, type 1a enzyme. In kind it is biochemical, HCV type 1a (cloned from the blood of patients). As to conditions: HCV polymerase inhibitory activity IC50, 1a, type 1a enzyme. An outline of the steps:
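IC50 values derive from radioactivity of newly synthesized RNA with versus without test compound. The enzyme was C-terminally truncated type 1a NS5B, 1.5 μg/ml, run 60 min at 25° C with 3H-UTP-labelled nucleotides.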

The IC50 is the concentration that inhibits the measured activity by half. High values mean weaker potency in that assay, low ones greater potency in that assay. On to `O=C(NCc1ccc(OC(F)F)c(F)c1)[C@H]1CN(c2nc3nc(C(F)(F)F)ncc3s2)CCN1S(=O)(=O)c1ccc(C(F)(F)F)cc1` [Example 1085, (R)-1-(4-trifluoromethyl-benzenesulfonyl)-4-(5-trifluoromethyl-thiazolo[4,5-d]pyrimidin-2-yl)-piperazine-2-carboxylic acid 4-difluoromethoxy-3-fluoro-benzylamide], for which the 50% inhibitory concentration (IC50) in experiment [1] and in experiment [2] was less than 100 nM throughout.
Regarding `O=C(NCc1ccc(OC(F)(F)F)cc1)[C@H]1CN(c2nc3ccc(=O)[nH]c3s2)CCN1S(=O)(=O)c1ccc(C(F)(F)F)cc1` [Example 1086, (R)-4-(5-oxo-4,5-dihydro-thiazolo[5,4-b]pyridin-2-yl)-1-(4-trifluoromethyl-benzenesulfonyl)-piperazine-2-carboxylic acid 4-trifluoromethoxy-benzylamide], the 50% inhibitory concentration (IC50) in experiment [1] and in experiment [2] was less than 100 nM throughout.
As to `O=C(NCc1ccc(OC(F)(F)F)cc1)[C@H]1CN(c2nc3nc(OC(F)F)ncc3s2)CCN1S(=O)(=O)c1ccc(OC(F)(F)F)cc1` [Example 1087, (R)-4-(5-difluoromethoxy-thiazolo[4,5-d]pyrimidin-2-yl)-1-(4-trifluoromethoxy-benzenesulfonyl)-piperazine-2-carboxylic acid 4-trifluoromethoxy-benzylamide], the IC50 in experiment [1] and in experiment [2] was less than 100 nM in each case.
For `CC(C)c1cc(=O)nc2sc(N3CCN(S(=O)(=O)c4ccc(OC(F)(F)F)cc4)[C@@H](C(=O)NCc4ccc(OC(F)(F)F)cc4)C3)nn12` [Example 1088, (R)-4-(5-isopropyl-7-oxo-7H-[1,3,4]thiadiazolo[3,2-a]pyrimidin-2-yl)-1-(4-trifluoromethoxy-benzenesulfonyl)-piperazine-2-carboxylic acid 4-trifluoromethoxy-benzylamide], the half-inhibitory concentration (IC50) in experiment [1] and in experiment [2] was less than 100 nM in each case.
Consider `CC(C)c1cc(=O)nc2sc(N3CCN(S(=O)(=O)c4ccc(OC(F)(F)F)cc4)[C@@H](C(=O)NCc4ccc(OC(F)F)cc4)C3)nn12` [Example 1089, (R)-4-(5-isopropyl-7-oxo-7H-[1,3,4]thiadiazolo[3,2-a]pyrimidin-2-yl)-1-(4-trifluoromethoxy-benzenesulfonyl)-piperazine-2-carboxylic acid 4-difluoromethoxy-benzylamide], for which the IC50 in experiment [1] and in experiment [2] was less than 100 nM in each case.
Regarding `Nc1nc(C2CC2)nc2nc(N3CCN(S(=O)(=O)c4ccc(OC(F)(F)F)cc4)[C@@H](C(=O)NCc4ccc(OC(F)(F)F)cc4)C3)sc12` [Example 1090, (R)-4-(7-amino-5-cyclopropyl-thiazolo[4,5-d]pyrimidin-2-yl)-1-(4-trifluoromethoxy-benzenesulfonyl)-piperazine-2-carboxylic acid 4-trifluoromethoxy-benzylamide], the IC50 in experiment [1] and in experiment [2] was less than 100 nM each time.
As to `CC(C)(O)c1nc(N)c2sc(N3CCN(S(=O)(=O)c4ccc(OC(F)(F)F)cc4)[C@@H](C(=O)NCc4ccc(OC(F)(F)F)cc4)C3)nc2n1` [Example 1091, (R)-4-[7-amino-5-(1-hydroxy-1-methyl-ethyl)-thiazolo[4,5-d]pyrimidin-2-yl]-1-(4-trifluoromethoxy-benzenesulfonyl)-piperazine-2-carboxylic acid 4-trifluoromethoxy-benzylamide], the IC50 in experiment [1] and in experiment [2] was less than 100 nM in each case.
As for `CCCc1ccc(CNC(=O)[C@H]2CN(c3nc(C)c(C(O)C(=O)O)s3)CCN2S(=O)(=O)c2ccc(OC(F)(F)F)cc2)cc1` (stereo partly drawn) [Example 1092, hydroxy-{4-methyl-2-[(R)-3-(4-propyl-benzylcarbamoyl)-4-(4-trifluoromethoxy-benzenesulfonyl)-piperazin-1-yl]-thiazol-5-yl}-acetic acid], the half-maximal inhibitory concentration (IC50) in experiment [1] was less than 100 nM; in experiment [2], 100 to 1000 nM.
For `CCN(C)c1ccc(CNC(=O)[C@H]2CN(c3nc(Cl)c(C(=O)O)s3)CCN2S(=O)(=O)c2ccc(OC(F)(F)F)cc2)cc1` [Example 1093, 4-chloro-2-[(R)-3-[4-(ethyl-methyl-amino)-benzylcarbamoyl]-4-(4-trifluoromethoxy-benzenesulfonyl)-piperazin-1-yl]-thiazole-5-carboxylic acid] the same measures were less than 100 nM and less than 100 nM.
As to `CCCc1ccc(CNC(=O)[C@H]2CN(c3cc(C)n(CC(=O)O)n3)CCN2S(=O)(=O)c2ccc(OC(F)(F)F)cc2)cc1` [Example 1094, {5-methyl-3-[(R)-3-(4-propyl-benzylcarbamoyl)-4-(4-trifluoromethoxy-benzenesulfonyl)-piperazin-1-yl]-pyrazol-1-yl}-acetic acid], the IC50 in experiment [1] and in experiment [2] was 100 to 1000 nM each time.
`CC[N+](CC)(CC)Cc1cnc(N2CCN(S(=O)(=O)c3ccc(OC(F)(F)F)cc3)[C@@H](C(=O)NCc3ccc(C(C)(C)C)cc3)C2)cn1` [Example 1095, [(R)-3-(4-tert-butyl-benzylcarbamoyl)-4-(4-trifluoromethoxy-benzenesulfonyl)-3,4,5,6-tetrahydro-2H-[1,2′]bipyrazinyl-5′-ylmethyl]-triethyl-ammonium trifluoro-methanesulfonate]: the 50% inhibitory concentration (IC50) in experiment [1] and in experiment [2] was 100 to 1000 nM in each case.
As for `CCC(F)(F)c1ccc(CNC(=O)[C@H]2CN(C(=O)Cn3nnc(N)n3)CCN2S(=O)(=O)c2ccc(OC(F)(F)F)cc2)cc1` [Example 1096, (R)-4-[2-(5-amino-tetrazol-2-yl)-acetyl]-1-(4-trifluoromethoxy-benzenesulfonyl)-piperazine-2-carboxylic acid 4-(1,1-difluoro-propyl)-benzylamide], the IC50 in experiment [1] and in experiment [2] was less than 100 nM throughout.
Take `CCC(F)(F)c1ccc(CNC(=O)[C@H]2CN(C(=O)Cn3nnnc3N)CCN2S(=O)(=O)c2ccc(OC(F)(F)F)cc2)cc1` [Example 1097, (R)-4-[2-(5-amino-tetrazol-1-yl)-acetyl]-1-(4-trifluoromethoxy-benzenesulfonyl)-piperazine-2-carboxylic acid 4-(1,1-difluoro-propyl)-benzylamide]: the IC50 in experiment [1] and in experiment [2] was 100 to 1000 nM throughout.
As for `O=C(NCc1ccc(OC(F)(F)F)cc1)[C@H]1CN(c2nc3nc(CCO)ncc3s2)CCN1S(=O)(=O)c1ccc(OC(F)(F)F)cc1` [Example 1098, (R)-4-[5-(2-hydroxy-ethyl)-thiazolo[4,5-d]pyrimidin-2-yl]-1-(4-trifluoromethoxy-benzenesulfonyl)-piperazine-2-carboxylic acid 4-trifluoromethoxy-benzylamide], the IC50 in experiment [1] and in experiment [2] was less than 100 nM each time.
For the compound `O=C(NCc1ccc(OC(F)(F)F)cc1)[C@H]1CN(c2nc3nc(C4CC4)ncc3s2)CCN1S(=O)(=O)c1ccc(C2CC2)cc1` [Example 1099, (R)-1-(4-cyclopropyl-benzenesulfonyl)-4-(5-cyclopropyl-thiazolo [4,5-d]pyrimidin-2-yl)-piperazine-2-carboxylic acid 4-trifluoromethoxy-benzylamide], the 50% inhibitory concentration (IC50) in experiment [1] and in experiment [2] was less than 100 nM throughout.
`O=C(NCc1ccc(OC(F)(F)F)cc1)[C@H]1CN(c2nc3nc(C(F)(F)F)ncc3s2)CCN1S(=O)(=O)c1ccc(C2CC2)cc1` [Example 1100, (R)-4-(5-trifluoromethyl-thiazolo[4,5-d]pyrimidin-2-yl)-1-(4-cyclopropyl-benzenesulfonyl)-piperazine-2-carboxylic acid 4-trifluoromethoxy-benzylamide]: the IC50 in experiment [1] and in experiment [2] was less than 100 nM each time.
